Data as given in paper PMC4254045 (Bioorganic & medicinal chemistry, 2014).
Entries after “also recorded” stand apart in the source; their conditions may differ. Square brackets hold non-standard residues; d marks the D form. Peptide text beside a SMILES is read from it. dPhe(4-guanidino) = N=C(N)Nc1ccc(C[C@@H](N)C(=O)O)cc1; Phe(4-guanidino) = N=C(N)Nc1ccc(C[C@H](N)C(=O)O)cc1

Key:
rat MrgC = target: T1, rat MrgC (Rattus norvegicus, UniProt Q8R4G1); test: FLIPR agonist assay, transiently transfected HEK293 or KNRK cells, rat MrgC; format: cell-based
T1 sequence (Q8R4G1 1-323): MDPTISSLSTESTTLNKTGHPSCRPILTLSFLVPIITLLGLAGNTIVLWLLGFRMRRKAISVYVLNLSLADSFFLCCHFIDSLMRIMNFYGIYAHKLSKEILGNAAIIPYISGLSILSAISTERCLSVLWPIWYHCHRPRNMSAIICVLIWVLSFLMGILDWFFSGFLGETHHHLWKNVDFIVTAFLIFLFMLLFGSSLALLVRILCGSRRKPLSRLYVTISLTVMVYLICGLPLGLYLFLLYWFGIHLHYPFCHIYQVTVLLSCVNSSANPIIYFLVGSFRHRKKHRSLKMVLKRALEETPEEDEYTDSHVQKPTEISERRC

mouse MrgC11 [1] = target: T2, mouse MrgC11 (Mus musculus, UniProt Q8CIP3); test: FLIPR agonist assay, transiently transfected HEK293 or KNRK cells, mouse MrgC11; format: cell-based; details: for agonist activity at mouse MrgC11 (in words): full agonism relative to BAM8-22
T2 sequence (Q8CIP3 1-322): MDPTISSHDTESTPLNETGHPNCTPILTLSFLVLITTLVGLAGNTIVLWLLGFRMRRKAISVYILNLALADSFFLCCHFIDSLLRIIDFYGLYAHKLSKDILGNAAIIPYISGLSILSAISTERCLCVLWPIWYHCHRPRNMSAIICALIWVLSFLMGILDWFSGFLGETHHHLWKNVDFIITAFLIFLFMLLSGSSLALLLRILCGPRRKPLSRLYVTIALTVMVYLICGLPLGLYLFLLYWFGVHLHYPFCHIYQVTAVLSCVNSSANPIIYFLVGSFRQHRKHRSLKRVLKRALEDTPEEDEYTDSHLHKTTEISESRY

human MrgX1 [2] = target: T3, human MrgX1 (Homo sapiens, UniProt Q96LB2); test: FLIPR agonist assay, HEK293 cells stably transfected with human MrgX1; format: cell-based
mouse MrgC11 [3] = target: T2, mouse MrgC11; details: cited from earlier work
mice = details: cited from earlier work
human MrgX1 [4] = target: T3, human MrgX1; test: Antagonist activity in human MrgX1 using BAM8-22; format: cell-based; details: human MrgX1, BAM8-22 (200 nM) as agonist
rats = details: cited from earlier work
[5] = highest concentration tested due to limited solubility
[6] = FLIPR, transiently transfected HEK293 or KNRK cells, average of at least three independent experiments ± SD

T3 sequence (Q96LB2 whole entry): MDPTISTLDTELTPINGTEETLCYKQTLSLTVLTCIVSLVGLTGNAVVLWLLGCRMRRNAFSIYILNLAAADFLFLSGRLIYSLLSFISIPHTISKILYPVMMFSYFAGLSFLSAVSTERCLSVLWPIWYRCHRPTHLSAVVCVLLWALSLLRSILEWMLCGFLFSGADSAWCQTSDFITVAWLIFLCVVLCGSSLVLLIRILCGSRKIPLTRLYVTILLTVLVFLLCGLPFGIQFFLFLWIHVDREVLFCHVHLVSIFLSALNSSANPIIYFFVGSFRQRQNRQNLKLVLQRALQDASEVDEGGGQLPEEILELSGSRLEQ

For `COc1ccc(-c2ccc(C(=O)Nc3cccc(Cn4ncc(N5CCNCC5)cc4=O)c3C)cc2)cn1` [1c, reference compound], the “agonist activity at rat MrgC at concentrations up to 2 μM” value (rat MrgC; [5]) was “no measurable agonist activity”, the “agonist activity at mouse MrgC11 at concentrations up to 2 μM” value (mouse MrgC11 [1]; [5]) was “no measurable agonist activity” and the “agonist activity at human MrgX1 (in words)” value (human MrgX1 [2]; FLIPR) was “selectively activated human MrgX1”.
For `N=C(N)N[C@@H]1CN[C@H](C(=O)N[C@@H](Cc2ccccc2)C(N)=O)C1` [compound 12, (2S,4S)-N-((S)-1-amino-1-oxo-3-phenylpropan-2-yl)-4-guanidinopyrrolidine-2-carboxamide bis(trifluoroacetate)], the “agonist activity at rat MrgC (in words)” value (rat MrgC; FLIPR) was “failed to show agonist activity”.
In the case of Phe-Met-Arg-Phe-NH2, the “MrgC11 agonist activity (in words)” value (mouse MrgC11 [3]) is given as “submicromolar”.
For `N=C(N)Nc1ccc(C[C@@H](N)C(=O)N[C@@H](Cc2ccccc2)C(N)=O)cc1` [24b, (2R)-2-amino-N-((2S)-1-amino-1-oxo-3-phenylpropan-2-yl)-3-(4-guanidinophenyl)propanamide bis(trifluoroacetate)] (H-[dPhe(4-guanidino)]-Phe-NH2), the “agonist activity at rat MrgC (in words)” value (rat MrgC; FLIPR) was “exhibited agonist activity”, the “fold more potent than 24a at rat MrgC” value (rat MrgC; relative to diastereomer 24a) was about 100 fold and the “agonist activity at mouse MrgC11 (in words)” value (mouse MrgC11 [1]; FLIPR) was “exhibited agonist activity”. The “fold more potent than 24a at mouse MrgC11” value (mouse MrgC11 [1]; relative to diastereomer 24a) was about 10 fold, the “effect on neuropathic pain” value (mice) was “attenuated neuropathic pain” and the “antagonist activity at concentrations up to 200 μM” value (human MrgX1 [4]) was “Neither Arg-Phe-NH2 nor 24b, however, showed any antagonist activity”. For the same compound, the “effect on neuropathic pain” value (rats) was “attenuated neuropathic pain”.
In the case of `N=C(N)Nc1cccc(C(N)C(=O)N[C@@H](Cc2ccccc2)C(N)=O)c1` (some centres unmarked) [20b], the “agonist activity at rat MrgC (in words)” value (rat MrgC; FLIPR) is reported as “failed to show agonist activity; also recorded: Neither of the analogs showed agonist activity”, the “pEC50 Rat MrgC” value (rat MrgC; [6]) is reported as under 4 and the “pEC50 Mouse MrgC11” value (mouse MrgC11 [1]; [6]) is reported as 4.5 ± 0.1.
For Phe-Met-D-Arg-Phe-NH2, the “MrgC11 agonist activity (in words)” value (mouse MrgC11 [3]) is given as “inactive”.
In the case of `N=C(N)NC[C@@H]1CN[C@H](C(=O)N[C@@H](Cc2ccccc2)C(N)=O)C1` [compound 16, (2S,4S)-N-((S)-1-amino-1-oxo-3-phenylpropan-2-yl)-4-(guanidinomethyl)pyrrolidine-2-carboxamide bis(trifluoroacetate)], the “agonist activity at rat MrgC (in words)” value (rat MrgC; FLIPR) is reported as “failed to show agonist activity”.
For Arg-Phe, the “EC50 for activating MrgC11 (in words)” value (mouse MrgC11 [3]) is listed as “submicromolar”.
For `N=C(N)Nc1ccc(C[C@H](N)C(=O)N[C@@H](Cc2ccccc2)C(N)=O)cc1` [24a, (2S)-2-amino-N-((2S)-1-amino-1-oxo-3-phenylpropan-2-yl)-3-(4-guanidinophenyl)propanamide bis(trifluoroacetate)] (H-[Phe(4-guanidino)]-Phe-NH2), the “agonist activity at rat MrgC (in words)” value (rat MrgC; FLIPR) was “exhibited agonist activity” and the “agonist activity at mouse MrgC11 (in words)” value (mouse MrgC11 [1]; FLIPR) was “exhibited agonist activity”.
For `N=C(N)Nc1cccc(C(N)C(=O)N[C@@H](Cc2ccccc2)C(N)=O)c1` (some centres unmarked) [20a], the EC50 (rat MrgC) was over 100 µM, the “agonist activity at rat MrgC (in words)” value (rat MrgC; FLIPR) was “failed to show agonist activity; also recorded: Neither of the analogs showed agonist activity” and the EC50 (human MrgX1 [2]) was over 100 µM.
